Assays:
Format in all cases: physicochemical
[1] = Stability of non-dihydrate azithromycin in suspension (POS formulation II or bulk drug in water); SS-NMR quantification of form A
Method: The stability of various forms of non-dihydrate azithromycin, in water and in flavored oral suspensions, was evaluated. Specifically, non-dihydrate azithromycin forms G, M, N, F and J were separately used in POS formulation II. These POS formulations were constituted by mixing with 18 mls of water. The suspensions were then stored for 1, 5 and 10 days at either 5° C. or 30° C. Suspensions of bulk azithromycin forms G, M, N, F and J were also constituted with 18 mls of water and stored under the same conditions.
Upon conclusion of the storage time period the suspensions were filtered and suspended solids collected as described previously.

[2] = Effects of flavoring components upon azithromycin form F conversion in constituted POS; conditions: room temperature
Excerpt: POS formulation II was constituted with water and stored identically to serve as a control for this experiment.

[3] = Effect of cyclodextrins on non-dihydrate azithromycin form conversion in constituted POS formulation II; conditions: for % Form A: 18 mls water
Method: The effect of adding a complexing agent such as cyclodextrin on the stability of non-dihydrate azithromycin forms G, M and F against conversion in a constituted POS formulation were evaluated.
Forms G, M and F of azithromycin were formulated into POS formulation II. Various cyclodextrins were added to the POS formulation II and the resulting samples were constituted with 18 mls of water. The suspensions were then stored for 24 hours at room temperature. At the end of the storage time, the suspensions were filtered and the recovered solids were weighed and analyzed by SS-NMR to quantify the presence of azithromycin dihydrate (form A). The control samples were formulated into formulation II with non-dihydrate azithromycin form G, M and F without cyclodextrins and were constituted with water, stored, filtered and analyzed identically to the cyclodextrin samples described above. A control, which had no cyclodextrin was run with each series of experiments. The SS-NMR data are presented in Tables 10, 11, 12 and the results are given as weight percent (% wt), of the recovered azithromycin sample.

[4] = Bulk Drug in 18 mls water, 5° C., Day 1
[5] = Bulk Drug in 18 mls water, 5° C., Day 10
[6] = Bulk Drug in 18 mls water, 30° C., Day 1
[7] = Bulk Drug in 18 mls water, 30° C., Day 10
[8] = Formulation II constituted with 18 mls water, 5° C., Day 1
[9] = Formulation II constituted with 18 mls water, 5° C., Day 10
[10] = Formulation II constituted with 18 mls water, 30° C., Day 1
[11] = Formulation II constituted with 18 mls water, 30° C., Day 10
[12] = POS Formulation II + Hydroxypropyl β-cyclodextrin 11.1 % w/w, 24 hours room temperature (Tables 11, 12)
[13] = POS Formulation II, no cyclodextrin (Control), 24 hours room temperature (Tables 11, 12)

SMILES | % A (azithromycin dihydrate, form A, of recovered azithromycin) [1, 4] [%] | % A (azithromycin dihydrate, form A, of recovered azithromycin) [1, 5] [%] | % A (azithromycin dihydrate, form A, of recovered azithromycin) [1, 6] [%] | % A (azithromycin dihydrate, form A, of recovered azithromycin) [1, 7] [%] | % A (azithromycin dihydrate, form A, of recovered azithromycin) [1, 8] [%] | % A (azithromycin dihydrate, form A, of recovered azithromycin) [1, 9] [%] | % A (azithromycin dihydrate, form A, of recovered azithromycin) [1, 10] [%] | % A (azithromycin dihydrate, form A, of recovered azithromycin) [1, 11] [%] | % Form A [3, 12] [%] | % Form A [3, 13] [%] | further results
CCC1OC(=O)C(C)C(O[C@H]2C[C@@](C)(OC)[C@@H](O)C(C)O2)C(C)[C@@H](OC2OC(C)CC(N(C)C)[C@H]2O)[C@@](C)(O)C[C@@H](C)CN(C)[C@H](C)[C@@H](O)[C@]1(C)O (some centres unmarked) [Form F, azithromycin monohydrate hemi-ethanol solvate] | 0 | 0 | 0 | 0 | 6 | 27 | 19 | 31 | 0.0 | 74.6 | % F (SS-NMR Evaluation after 24 hrs constitution) ([2]; Formulation I constituted with 18 mL 0.0577 mg/ml benzaldehyde): 0%; % F (SS-NMR Evaluation after 24 hrs constitution) ([2]; Formulation I constituted with 18 mL 0.922 mg/ml 3-methyl-butyl acetate + 0.0577 mg/ml benzaldehyde): 0%; % F (SS-NMR Evaluation after 24 hrs constitution) ([2]; Formulation I constituted with 18 mL 0.922 mg/ml 3-methyl-butyl acetate): 0%; % F (SS-NMR Evaluation after 24 hrs constitution) ([2]; Formulation I constituted with 18 mL 1.666 mg/ml 3-methyl-butyl acetate): 0%; % F (SS-NMR Evaluation after 24 hrs constitution) ([2]; Formulation II constituted with 18 mL Water): 0%; % Form A ([3]; POS Formulation II + Sulfobutylether β-cyclodextrin 11.1 % w/w, 24 hours room temperature (Table 11)): 0.0%; % Form A ([3]; POS Formulation II + α-cyclodextrin 1.2 % w/w, 24 hours room temperature (Table 11)): 0.0%; conversion to form A ([3]; POS Formulation II when cyclodextrins were present, 24 hours room temperature): no conversion
CCC1OC(=O)C(C)C(O[C@H]2C[C@@](C)(OC)[C@@H](O)C(C)O2)C(C)[C@@H](OC2OC(C)CC(N(C)C)[C@H]2O)[C@@](C)(O)C[C@@H](C)CN(C)[C@H](C)[C@@H](O)[C@]1(C)O (some centres unmarked) [Form J, azithromycin monohydrate hemi-n-propanol solvate] | 0 | 0 | 0 | 0 | 0 | 0 | 0 | 0 | – | – | –
CCC1OC(=O)C(C)C(O[C@H]2C[C@@](C)(OC)[C@@H](O)C(C)O2)C(C)[C@@H](OC2OC(C)CC(N(C)C)[C@H]2O)[C@@](C)(O)C[C@@H](C)CN(C)[C@H](C)[C@@H](O)[C@]1(C)O (some centres unmarked) [Form M, azithromycin monohydrate hemi-isopropanol solvate] | 0 | 0 | 0 | 0 | 23 | 40 | 28 | 62 | 0.0 | 71.6 | % A (azithromycin dihydrate, form A, of recovered azithromycin) ([1]; Bulk Drug in 18 mls water, 5° C., Day 5): 0%; % A (azithromycin dihydrate, form A, of recovered azithromycin) ([1]; Bulk Drug in 18 mls water, 30° C., Day 5): 0%; % A (azithromycin dihydrate, form A, of recovered azithromycin) ([1]; Formulation II constituted with 18 mls water, 5° C., Day 5): 38%; % A (azithromycin dihydrate, form A, of recovered azithromycin) ([1]; Formulation II constituted with 18 mls water, 30° C., Day 5): 36%; % Form A ([3]; POS Formulation II + Hydroxypropyl β-cyclodextrin 11.1 % w/w, 24 hours room temperature (Tables 11, 12), listed as form M): no conversion; % Form A ([3]; POS Formulation II + β-cyclodextrin 1.2 % w/w, 24 hours room temperature (Table 12)): 0.9%; % Form A ([3]; POS Formulation II + β-cyclodextrin 1.2 % w/w, 24 hours room temperature (Table 12), listed as form M): very small amount of conversion; % Form A ([3]; POS Formulation II + γ-cyclodextrin 1.2 % w/w, 24 hours room temperature (Table 12)): 29.9%
